Source: PubChem BioAssay AID1918998 (Molecular Pharmacology Branch, DTP, NCI, 2023)

Test system: 521955-158-R2-J5-PDC complex spheroid growth
Experiment: Anticancer human tumor 521955-158-R2-J5-PDC patient-derived pancreatic carcinoma cell line growth inhibition [AhR]
Settings: for IC50: curve of first compound; for viability, T/C: stronger effect = lower value
Summary of the method: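 Complex tumor spheroids co-cultured with HUVEC and human MSC stroma; AhR antagonists tested in combination with standard-of-care and investigational agents. Top concentration at or near clinical Cmax (else 10 microM), half-log dilutions; growth expressed as percent test/control.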

[1] = second compound 0.1 µM, first compound 0.000949 µM
[2] = second compound 0.1 µM, first compound 0.003 µM
[3] = second compound 0.1 µM, first compound 0.00949 µM
[4] = second compound 0.1 µM, first compound 0.03 µM
[5] = second compound 0.1 µM, first compound 0.0949 µM
[6] = second compound 0.1 µM, first compound 0.3 µM
[7] = second compound 0.316 µM, first compound 0.000949 µM
[8] = second compound 0.316 µM, first compound 0.003 µM
[9] = second compound 0.316 µM, first compound 0.00949 µM
[10] = second compound 0.316 µM, first compound 0.03 µM
[11] = second compound 0.316 µM, first compound 0.0949 µM
[12] = second compound 0.316 µM, first compound 0.3 µM
[13] = second compound 1 µM, first compound 0.000949 µM
[14] = second compound 1 µM, first compound 0.003 µM
[15] = second compound 1 µM, first compound 0.00949 µM
[16] = second compound 1 µM, first compound 0.03 µM
[17] = second compound 1 µM, first compound 0.0949 µM
[18] = second compound 1 µM, first compound 0.3 µM
[19] = second compound 3.16 µM, first compound 0.000949 µM
[20] = second compound 3.16 µM, first compound 0.003 µM
[21] = second compound 3.16 µM, first compound 0.00949 µM
[22] = second compound 3.16 µM, first compound 0.03 µM
[23] = second compound 3.16 µM, first compound 0.0949 µM
[24] = second compound 3.16 µM, first compound 0.3 µM
[25] = second compound 10 µM, first compound 0.000949 µM
[26] = second compound 10 µM, first compound 0.003 µM
[27] = second compound 10 µM, first compound 0.00949 µM
[28] = second compound 10 µM, first compound 0.03 µM
[29] = second compound 10 µM, first compound 0.0949 µM
[30] = second compound 10 µM, first compound 0.3 µM
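Throughout, for viability, T/C: spheroids mix tumor cells with HUVEC endothelium and human MSC stroma; luminescence taken as viability surrogate after a week of drug exposure.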

Work on `CC(C)CC(NC(=O)C(Cc1ccccc1)NC(=O)c1cnccn1)B(O)O` (stereo not given) + Cc1cncc(-c2nc(NCCc3c[nH]c4ccccc34)c3ncn(C(C)C)c3n2)c1 yielded an IC50 (second compound 0.1 µM) of 16.5 nM, an IC50 (second compound 0.316 µM) of 16.7 nM and an IC50 (second compound 1 µM) of 16.8 nM. The IC50 (second compound 3.16 µM) was 15.1 nM, the IC50 (second compound 10 µM) was 6.44 nM and the viability, T/C [1] was 103%. For the same compound, the viability, T/C [2] was 103%, the viability, T/C [3] was 91.8% and the viability, T/C [4] was 4.93%. For the same compound, the viability, T/C [5] was 0.17%, the viability, T/C [6] was 0.27% and the viability, T/C [7] was 118%. The viability, T/C [8] was 92.1%, the viability, T/C [9] was 97.5% and the viability, T/C [10] was 0.39%. The viability, T/C [11] was 0.25%, the viability, T/C [12] was 0.21% and the viability, T/C [13] was 107%. The viability, T/C [14] was 128%, the viability, T/C [15] was 98.2% and the viability, T/C [16] was 1.49%. It also gave a viability, T/C [17] of 2.14%, a viability, T/C [18] of 0.89% and a viability, T/C [19] of 141%. It also gave a viability, T/C [20] of 127%, a viability, T/C [21] of 81.7% and a viability, T/C [22] of 0.28%. For the same compound, the viability, T/C [23] was 2.97%, the viability, T/C [24] was 2.29% and the viability, T/C [25] was 144%. It also gave a viability, T/C [26] of 126%, a viability, T/C [27] of 11.6% and a viability, T/C [28] of 0.28%. The viability, T/C [29] was 2.54% and the viability, T/C [30] was 0.26%.

With `CCc1c2c(nc3ccc(O)cc13)-c1cc3c(c(=O)n1C2)COC(=O)[C@]3(O)CC` + Cc1cncc(-c2nc(NCCc3c[nH]c4ccccc34)c3ncn(C(C)C)c3n2)c1 the IC50 (second compound 0.1 µM) was 4.04 nM, the IC50 (second compound 0.316 µM) was 3.98 nM and the IC50 (second compound 1 µM) was 4.17 nM. The IC50 (second compound 3.16 µM) was 4.21 nM, the IC50 (second compound 10 µM) was 3 nM and the viability, T/C [1] was 78.5%. The viability, T/C [2] was 58.6%, the viability, T/C [3] was 25.2% and the viability, T/C [4] was 16.5%. It also gave a viability, T/C [5] of 14.9%, a viability, T/C [6] of 12.5% and a viability, T/C [7] of 70.1%. For the same compound, the viability, T/C [8] was 57.8%, the viability, T/C [9] was 26.5% and the viability, T/C [10] was 18%. For the same compound, the viability, T/C [11] was 12.4%, the viability, T/C [12] was 12.3% and the viability, T/C [13] was 90.1%. It also gave a viability, T/C [14] of 60%, a viability, T/C [15] of 24.5% and a viability, T/C [16] of 21%. It also gave a viability, T/C [17] of 16.4%, a viability, T/C [18] of 15.2% and a viability, T/C [19] of 70.4%. The viability, T/C [20] was 58.7%, the viability, T/C [21] was 29.7% and the viability, T/C [22] was 18.2%. It also gave a viability, T/C [23] of 16.7%, a viability, T/C [24] of 10.5% and a viability, T/C [25] of 98.9%. For the same compound, the viability, T/C [26] was 49.8%, the viability, T/C [27] was 24.1% and the viability, T/C [28] was 15.3%. It also gave a viability, T/C [29] of 8.29% and a viability, T/C [30] of 4.78%.

For `COc1cc(Nc2ncc3c(n2)-c2ccc(Cl)cc2C(c2c(F)cccc2OC)=NC3)ccc1C(=O)O` + Cc1cncc(-c2nc(NCCc3c[nH]c4ccccc34)c3ncn(C(C)C)c3n2)c1, the IC50 (second compound 0.1 µM) was greater than 10000 nM, the IC50 (second compound 0.316 µM) was greater than 10000 nM and the IC50 (second compound 1 µM) was greater than 10000 nM. For the same compound, the IC50 (second compound 3.16 µM) was greater than 10000 nM, the IC50 (second compound 10 µM) was greater than 10000 nM and the viability, T/C (second compound 0.1 µM, first compound 0.0316 µM) was 100%. It also gave a viability, T/C (second compound 0.1 µM, first compound 0.1 µM) of 78.8%, a viability, T/C (second compound 0.1 µM, first compound 0.316 µM) of 78.8% and a viability, T/C (second compound 0.1 µM, first compound 1 µM) of 72.3%. The viability, T/C (second compound 0.1 µM, first compound 3.16 µM) was 80.1%, the viability, T/C (second compound 0.1 µM, first compound 10 µM) was 74.2% and the viability, T/C (second compound 0.316 µM, first compound 0.0316 µM) was 99.7%. It also gave a viability, T/C (second compound 0.316 µM, first compound 0.1 µM) of 79.9%, a viability, T/C (second compound 0.316 µM, first compound 0.316 µM) of 87.1% and a viability, T/C (second compound 0.316 µM, first compound 1 µM) of 73.1%. The viability, T/C (second compound 0.316 µM, first compound 3.16 µM) was 68%, the viability, T/C (second compound 0.316 µM, first compound 10 µM) was 60.9% and the viability, T/C (second compound 1 µM, first compound 0.0316 µM) was 109%. It also gave a viability, T/C (second compound 1 µM, first compound 0.1 µM) of 88.5%, a viability, T/C (second compound 1 µM, first compound 0.316 µM) of 103% and a viability, T/C (second compound 1 µM, first compound 1 µM) of 83.2%. It also gave a viability, T/C (second compound 1 µM, first compound 3.16 µM) of 70.7%, a viability, T/C (second compound 1 µM, first compound 10 µM) of 70.4% and a viability, T/C (second compound 3.16 µM, first compound 0.0316 µM) of 127%. For the same compound, the viability, T/C (second compound 3.16 µM, first compound 0.1 µM) was 107%, the viability, T/C (second compound 3.16 µM, first compound 0.316 µM) was 97.5% and the viability, T/C (second compound 3.16 µM, first compound 1 µM) was 90.8%. It also gave a viability, T/C (second compound 3.16 µM, first compound 3.16 µM) of 83%, a viability, T/C (second compound 3.16 µM, first compound 10 µM) of 76.7% and a viability, T/C (second compound 10 µM, first compound 0.0316 µM) of 125%. The viability, T/C (second compound 10 µM, first compound 0.1 µM) was 88.4%, the viability, T/C (second compound 10 µM, first compound 0.316 µM) was 76.2% and the viability, T/C (second compound 10 µM, first compound 1 µM) was 84.3%. It also gave a viability, T/C (second compound 10 µM, first compound 3.16 µM) of 62.8% and a viability, T/C (second compound 10 µM, first compound 10 µM) of 81.3%.
